Like-named read-outs stand apart in the source and are kept apart here.

Test [1] concerns the target T1, human CB2 receptor (hCB2) (Homo sapiens, UniProt P34972). The test can be described thus: PathHunter beta-arrestin recruitment, CHO-K1. It is filed as cell-based.
Test [2] deals with T2, mouse CB2 receptor (mCB2) (Mus musculus, UniProt P47936). Description: cAMP assay, CHO cells. The note with it: agonist. The class given is cell-based.
In test [3] the target is T3, human CB1 receptor (hCB1) (Homo sapiens, UniProt P21554). The test can be described thus: [3H]-CP55940 competition, membranes. The class given is binding.
The target of test [4] is T3, human CB1 receptor (hCB1). The test can be described thus: PathHunter beta-arrestin recruitment, CHO-K1. It is filed as cell-based. (In general: Activated receptors often draw arrestin, which recruitment assays turn into a signal.)
The target in test [5] is T1, human CB2 receptor (hCB2). As to conditions: GoA activation.
In test [6] the target is T1, human CB2 receptor (hCB2). As to conditions: GoB activation.
Test [7] has as its target T1, human CB2 receptor (hCB2). The note with it: Gi1 activation.
The target of test [8] is T1, human CB2 receptor (hCB2). The note with it: beta-arrestin2 recruitment.
Test [9] addresses T1, human CB2 receptor (hCB2). The note with it: beta-arrestin1 recruitment.
Test [10] has as its target T1, human CB2 receptor (hCB2). As to conditions: Gi3 activation.
In test [11] the target is T1, human CB2 receptor (hCB2). As to conditions: Gi2 activation.
Test [12] deals with T1, human CB2 receptor (hCB2). The test can be described thus: cell-based. The note with it: read-out: cAMP Emax hCB2.
The target in test [13] is T3, human CB1 receptor (hCB1). The test can be described thus: biochemical.
In test [14] the target is T3, human CB1 receptor (hCB1). Description: cell-based. As to conditions: read-out: cAMP Emax hCB1.
The target in test [15] is T2, mouse CB2 receptor (mCB2). Description: cell-based. As to conditions: read-out: cAMP Emax mCB2.
The target in test [16] is T2, mouse CB2 receptor (mCB2). Description: [3H]-CP55940 competition, membranes. The class given is binding.
Test [17] has as its target T2, mouse CB2 receptor (mCB2). The test can be described thus: cell-based.
Test [18] has as its target T1, human CB2 receptor (hCB2). The test can be described thus: [3H]-CP55940 competition, membranes. It is filed as binding.
The target in test [19] is T2, mouse CB2 receptor (mCB2). Description: biochemical.
Test [20] has as its target T3, human CB1 receptor (hCB1). Description: [3H]-CP55940 competition, membranes. The class given is binding. This is another data set of the same source.
In test [21] the target is T3, human CB1 receptor (hCB1). The test can be described thus: cAMP assay, CHO cells. As to conditions: agonist. The class given is cell-based.
In test [22] the target is T3, human CB1 receptor (hCB1). The test can be described thus: cell-based.
Test [23] deals with T2, mouse CB2 receptor (mCB2). Description: cAMP assay, CHO cells. The class given is cell-based. (In general: Cyclic AMP is a second messenger, typically raised through Gs and lowered through Gi signalling.)

T3 sequence (P21554 whole entry): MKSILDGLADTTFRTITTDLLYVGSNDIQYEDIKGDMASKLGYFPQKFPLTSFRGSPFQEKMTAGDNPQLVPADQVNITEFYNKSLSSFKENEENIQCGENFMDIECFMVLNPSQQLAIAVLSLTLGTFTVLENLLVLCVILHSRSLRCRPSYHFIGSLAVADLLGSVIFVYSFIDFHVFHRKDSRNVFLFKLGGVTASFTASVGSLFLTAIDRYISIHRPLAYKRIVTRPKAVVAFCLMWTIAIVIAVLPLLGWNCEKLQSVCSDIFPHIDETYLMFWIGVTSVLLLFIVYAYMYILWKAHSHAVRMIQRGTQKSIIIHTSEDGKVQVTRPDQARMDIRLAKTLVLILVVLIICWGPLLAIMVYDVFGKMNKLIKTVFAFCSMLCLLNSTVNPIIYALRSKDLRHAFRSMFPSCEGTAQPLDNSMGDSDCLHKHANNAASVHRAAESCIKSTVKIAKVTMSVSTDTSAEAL
T1 sequence (P34972 whole entry): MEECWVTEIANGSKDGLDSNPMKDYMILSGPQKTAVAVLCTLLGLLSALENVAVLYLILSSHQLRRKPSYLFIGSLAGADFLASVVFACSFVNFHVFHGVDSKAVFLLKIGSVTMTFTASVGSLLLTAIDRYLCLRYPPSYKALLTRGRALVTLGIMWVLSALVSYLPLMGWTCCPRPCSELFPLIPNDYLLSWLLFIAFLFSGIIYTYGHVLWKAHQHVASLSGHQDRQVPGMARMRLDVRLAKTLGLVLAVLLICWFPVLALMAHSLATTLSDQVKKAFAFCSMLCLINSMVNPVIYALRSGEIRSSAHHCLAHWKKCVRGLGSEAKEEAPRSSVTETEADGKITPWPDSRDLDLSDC
T2 sequence (P47936 whole entry): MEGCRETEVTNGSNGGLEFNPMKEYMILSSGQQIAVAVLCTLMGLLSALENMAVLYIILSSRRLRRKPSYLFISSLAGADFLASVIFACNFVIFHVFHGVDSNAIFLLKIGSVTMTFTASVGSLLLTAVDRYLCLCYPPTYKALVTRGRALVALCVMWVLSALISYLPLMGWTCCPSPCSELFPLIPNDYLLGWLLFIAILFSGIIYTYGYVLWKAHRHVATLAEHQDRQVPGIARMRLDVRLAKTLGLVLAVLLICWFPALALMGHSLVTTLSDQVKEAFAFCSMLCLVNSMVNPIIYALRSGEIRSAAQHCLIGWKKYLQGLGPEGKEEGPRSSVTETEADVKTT

As for `CN1CCCCC1Cn1cc(C(=O)c2cc([N+](=O)[O-])ccc2I)c2ccccc21` (racemic) [(rac)-AM1241], the EC50 (usually the concentration giving half of the maximal effect) in test [1] was greater than 10000 nM.
On to `CCCCCCC(C)(C)c1ccc([C@@H]2C[C@H](O)CC[C@H]2CCCO)c(O)c1` [CP55940], for which, in test [2], the “cAMP pEC50” value worked out at 10.17.
On to `CCCCCCC(C)(C)c1cc(OC)c([C@@H]2C=C(CO)[C@@H]3C[C@H]2C3(C)C)c(OC)c1` [HU308], for which the Ki (as a rule, a dissociation constant, usually derived from enzyme kinetics or from competition with a known ligand) in test [3] is greater than 10000 nM. Moreover, the EC50 in test [4] was greater than 10000 nM.
Take `CCN1CCN(c2nc(C3CC3)nc3c2nnn3Cc2ccccc2Cl)CC1` [RO6435559]: the “GoA pEC50” value in test [5] is 7.998 M. In addition, the “GoB pEC50” value in test [6] was 7.794 M. Moreover, the “Gi1 pEC50” value in test [7] worked out at 7.984 M. In test [8], the “β-arrestin2 pEC50” value is 8.131 M. In addition, in [9], the “β-arrestin1 pEC50” value stood at 8.518 M. In test [10], the “Gi3 pEC50” value amounted to 7.941 M. Further, the “Gi2 pEC50” value in test [11] worked out at 8.154 M.
Regarding `CCOC(=O)C(CC)(CC)NC(=O)c1ccc(N2CCCC2)c(OCC2CC2)n1` [RO6843766], the Emax – broadly, the size of the effect at its maximum, as opposed to the concentration needed – in test [12] turned out to be 91%; in test [14], 59%; in test [15], 61%. Further, the Ki in test [13] turned out to be 617 nM.
As to `CN1CCN(c2nc(C(C)(C)C)nc3c2nnn3Cc2ccccc2Cl)CC1` [RO6844395], the “GoA pEC50” value in test [5] is listed as 7.607 M. The Emax in test [12] amounted to 99%; in test [14] it was 57%; in test [15], 80%. The “pKi hCB1” value in [13] (binder) is recorded as 5.76 M. The pKi – broadly, −log10 of the Ki, conventionally taken in molar units – is given as 6.87 in [16] and 7.67 in test [18]. In addition, the “cAMP pEC50 mCB2” value in test [17] (cAMP, agonist) is 7.30 M. Also, the “Gi1 pEC50” value in test [7] was 7.855 M. The “Gi3 pEC50” value in test [10] came out at 7.994 M. The “Gi2 pEC50” value in test [11] is given as 7.499 M.
As for `CCOC(=O)[C@H](CC(C)C)NC(=O)c1ccc(C2CC2)c(Cc2ccc(F)cc2)n1` [RO6853973], the Emax was 45% in test [12], 83% in test [14] and 23% in test [15]. In test [19], affinity was put at a Ki of 0.676 nM. In addition, in test [17], the EC50 was greater than 10000 nM. The figures for the pKi in test [18] and in test [20] were 9.45 and 8.21, respectively. Further, the “cAMP pEC50” value in test [21] turned out to be 8.12.
For the compound `O=S(=O)(Cc1ccccc1)c1nc(N2CCC(F)(F)C2)c2nnn(Cc3ccccc3Cl)c2n1` [RO6871487], the Emax in [12] stood at 52%; in test [14], 9%; in test [15] it was 24%. The values for the Ki in test [19] and in test [13] were 6.92 nM and 4570 nM, respectively. For the same compound, the EC50 in test [17] and in test [22] was greater than 10000 nM throughout.
As for `OCCSc1nc(N2CCC(F)(F)C2)c2nnn(Cc3ccccc3Cl)c2n1` [RO6878558], the Emax was determined as 87% in test [12], 20% in test [14] and 92% in test [15]. The Ki in test [13] was greater than 10000 nM. In [18], this compound registered a pKi of 6.94. Further, in [22], the EC50 was greater than 10000 nM.
`CC(C)(C)c1noc(-c2ccc(C3CC3)c(Cc3ccc(F)cc3)n2)n1` [RO6892033, 6-(3-tert-Butyl-1,2,4-oxadiazol-5-yl)-3-cyclopropyl-2-[(4-fluorophenyl)methyl]pyridine] had an EC50 in [23] of 4.07 nM. Besides, the Emax in [12] came to 66%; in test [14], 70%; in test [15], 45%. In [19], the Ki was 7.59 nM.
`CC(C)(C)c1nc(-c2cc(OCc3ccc(F)cc3)c(C3CC3)c(Cl)n2)no1` [RO6926274]: the “cAMP pEC50” value in [23] was less than 5.

Source of the values: paper doi:10.1101/2020.11.09.375162v1 (biorxiv, 2020).
